Test results published in patent US20100159496A1, “EVALUATION METHOD FOR PHOTOSYNTHESIS SAMPLE, EVALUATION SYSTEM FOR PHOTOSYNTHESIS SAMPLE, AND EVALUATION PROGRAM FOR PHOTOSYNTHESIS SAMPLE” (HAMAMATSU PHOTONICS K.K., priority 2006, published 2010).

Key:
Type in all cases: cell-based
[1] = system: Pseudokircheneriella subcapitata; experiment: Algae growth inhibition, area under growth curve, P. subcapitata; settings: 72 hours after exposure, various simazine concentrations (FIG. 13)
Protocol: In the present embodiment, the area under the growth curve is the area under the growth curve obtained by culturing 6 mL of an P. subcapitata cell suspension, adjusted to have an absorbance at 750 nm of 0.01, under a white fluorescent lamp (50 μmol·m−2·s−1) for 72 hours after chemical substance exposure and measuring, every 24 hours, the cell density as the absorbance at 750 nm.

Spirulina platensis = experiment: Algae growth inhibition, area under growth curve (OECD Test Guideline 201), S. platensis; settings: 72 hours after exposure, various simazine concentrations (FIG. 9)
Protocol: The area under the growth curve indicates cell growth, which is a conventional evaluation index of chemical substance impact on algae and is computed in compliance to a method for evaluating the impact of a chemical substance on a general algae (OECD Test Guideline 201). That is, the area under the growth curve is the area under the growth curve obtained by culturing 6 mL of an S. platensis cell suspension, adjusted to have an absorbance at 750 nm of 0.03, under a white fluorescent lamp (50 μmol·m−2·s−1) for 72 hours after chemical substance exposure and measuring, every 24 hours, a cell density as the absorbance at 750 nm.

[2] = system: Pseudokircheneriella subcapitata; experiment: Delayed luminescence of P. subcapitata exposed to simazine, fitted by Formula (1); set-up: key to Computed value E: E computed by Formula (2) from fitted coefficients ai, bi, ci; settings: for luminescence amount of delayed luminescence, exposed vs not exposed: 15 minutes after exposure (FIG. 14); for Fitting formula value a1 / Fitting formula value a2 / Fitting formula value a3 / Fitting formula value b1 / Fitting formula value b2 / Fitting formula value b3 / Fitting formula value c1 / Fitting formula value c2 / Fitting formula value c3: 15 minutes after exposure; for Computed value E: Formula (2) from coefficients of Table 2; for Area value (quadrature by parts): third function f3(t), t=0 to 90, Δt 0.1
Protocol: In the present example, the measurement of delayed luminescence was carried out as follows. 2.5 mL of a P. subcapitata cell suspension, adjusted to have an absorbance at 660 nm of 0.2 in a general, 10×10 mm spectrometric cell, was exposed to simazine of any of various concentrations and left to stand for 15 minutes under a white fluorescent lamp of a light amount of 50 μmol·m−2·s−1. Thereafter, inside the measuring device 10, a red light (660 nm) of approximately 300 μmol·m−2·s−1 was illuminated for 10 seconds from the light source 18 as the excitation light for making delayed luminescence be emitted and then the delayed luminescence emitted after extinguishing of the excitation light was recorded for 50 seconds at 0.1 second intervals.
In the present example, the above-described Formula (1) was used for fitting. As examples for description of the fitting results, the measurement result for the “Not exposed” case is shown in FIG. 15A and a graph of the results of fitting to the measurement data are shown in FIG. 15B. In FIG. 15B, f1(t), f2(t), and f3(t) are respectively the first function, the second function, and the third function in Formula (1). From FIG. 15, it can be understood that the delayed luminescence measurement data can be fitted by a plurality of hill-shaped function.
By the fitting, the function coefficients, ai, bi, and ci (i=1, 2, 3) are determined.
As another example of the evaluating step, a case of evaluating by an evaluation value computed based on a computation formula shall be described. As the evaluation value, an evaluation value E is computed from the determined coefficient values ai, bi, and ci (i=1, 2, 3) and based on Formula (2) described above. Here, the constants mj (j=1 to 9) are set, for example, so that m1=1/a3, m2=1, m3=1, m4=1/a2, m5=1/b2, m6=1/c2, m7=1, m8=1/a1, m9=1/c1. As the constants mj, those that are appropriate according to the measurement conditions and algae species can be set. If instead of using all of the coefficient values, only a portion is to be used as described above, a reciprocal of a coefficient value, such as 1/a3, is set to the corresponding mj (j=1 to 9) for each coefficient value to be ignored.
As another example of the evaluating step, a case of evaluating by an area value computed based on the coefficient values of a function shall be described. As mentioned above, the area value is the value of the area of a region surrounded by the curve indicating the function value in the function graph and the time axis line positioned below the curve indicating the function value. The area value of a function is deeply related to the luminescence amount of the photon component expressed by the function. In the present example, based on the coefficient values obtained from the results of exposing simazine to P. subcapitata shown in Table 2, area values were determined for the third function f3(t) in Formula (1) in a range of t=0 to 90 by quadrature by parts with at interval Δt being set equal to 0.1.

[3] = simazine exposure concentration 5 μg/L
[4] = simazine exposure concentration 25 μg/L
[5] = simazine exposure concentration 50 μg/L
[6] = simazine exposure concentration 100 μg/L

CCNc1nc(Cl)nc(NCC)n1 [Simazine, simazine]
cell growth (area under the growth curve) [1]: inhibited according to the exposure concentration of simazine
cell growth (area under the growth curve) (Spirulina platensis): inhibited according to the exposure concentration of simazine
variation of evaluation value c3 with simazine exposure concentration ([2]; P. subcapitata (FIG. 16)): decreases in accordance with the simazine exposure concentration
variation of computed value E with simazine exposure concentration ([2]; P. subcapitata (FIG. 17)): decreases in accordance with the simazine exposure concentration
variation of area value with simazine exposure concentration ([2]; P. subcapitata (FIG. 18)): decreases in accordance with the simazine exposure concentration
luminescence amount of delayed luminescence, exposed vs not exposed ([2]; early time period (near 0 seconds) of time after excitation): increases
luminescence amount of delayed luminescence, exposed vs not exposed ([2]; later time period (5 seconds onward) after excitation): decreases
Fitting formula value a1 [2, 3]: 0.05
Fitting formula value a2 [2, 3]: 0.0037
Fitting formula value a3 [2, 3]: 0.0005
Fitting formula value b1 [2, 3]: −0.5
Fitting formula value b2 [2, 3]: −0.5
Fitting formula value b3 [2, 3]: 6
Fitting formula value c1 [2, 3]: 5.2
Fitting formula value c2 [2, 3]: 4.15
Fitting formula value c3 [2, 3]: 3
Computed value E [2, 3]: 360
Area value (quadrature by parts) [2, 3]: 24112.1
Fitting formula value a1 [2, 4]: 0.05
Fitting formula value a2 [2, 4]: 0.0035
Fitting formula value a3 [2, 4]: 0.0004
Fitting formula value b1 [2, 4]: −0.5
Fitting formula value b2 [2, 4]: −0.5
Fitting formula value b3 [2, 4]: 5
Fitting formula value c1 [2, 4]: 5.2
Fitting formula value c2 [2, 4]: 4.1
Fitting formula value c3 [2, 4]: 2.9
Computed value E [2, 4]: 290
Area value (quadrature by parts) [2, 4]: 19665.7
Fitting formula value a1 [2, 5]: 0.08
Fitting formula value a2 [2, 5]: 0.0044
Fitting formula value a3 [2, 5]: 0.0005
Fitting formula value b1 [2, 5]: −0.5
Fitting formula value b2 [2, 5]: −0.5
Fitting formula value b3 [2, 5]: 3
Fitting formula value c1 [2, 5]: 5.4
Fitting formula value c2 [2, 5]: 4.1
Fitting formula value c3 [2, 5]: 2.9
Computed value E [2, 5]: 108.75
Area value (quadrature by parts) [2, 5]: 16520.1
Fitting formula value a1 [2, 6]: 0.1
Fitting formula value a2 [2, 6]: 0.005
Fitting formula value a3 [2, 6]: 0.005
Fitting formula value b1 [2, 6]: −0.5
Fitting formula value b2 [2, 6]: −0.5
Fitting formula value b3 [2, 6]: 3
Fitting formula value c1 [2, 6]: 5.6
Fitting formula value c2 [2, 6]: 4.1
Fitting formula value c3 [2, 6]: 2.7
Computed value E [2, 6]: 81
Area value (quadrature by parts) [2, 6]: 4435.7
